Source: US4820717A, “Antimicrobial aromatic derivatives substituted by an (omega amino) alkanol group and compositions containing them” (priority 1985, dated 1989)
Values after ≈ are worked out from the molar mass of the structure shown.

Assays:
[1] = test system: Streptococcus faecalis CNCM 5855; experiment: Bactericidal activity (MBC), strain 4; format: cell-based; details: Enterococcus faecalis, CNCM5855, 20 min; strain 4, 20 minutes of contact; read-out: Minimum bactericidal concentration (MBC)
Text: (§1) The bactericidal activity of the products according to the invention has been analyzed on various strains by the method described hereafter:
(§2) A bacterial inoculum is placed in contact with different dilutions of the product to be tested, and this for a limited period of time. At the end of contact, an aliquot part of the mixture bacterial suspension/product is deposited on the surface of an agar culture medium containing an agent neutralizing the antibacterial activity of the product. The bactericidal concentration retained is the smallest concentration of the product from which bacteria stop growing. Said concentration is expressed in μg/ml.
(§3) The bacterial strains selected for the analysis are:
4--Streptococcus faecalis CNCM 5855;
(§4) The second strain is supported on a Worgel Fergusson medium, the other strains being supported on Tryptic Soy Agar-Difco (TSA) commercialized by Difco.
(§5) After a 24-hour culture period at 37° C., the microbial growth is collected by means of glass beads and of 10 ml of diluent containing 1 g of tryptone and 8.5 g of sodium chloride in 1000 ml of distilled water. The formed suspension is stirred and the percentage of light transmission at 620 nm is measured with a spectrophotometer:
(§6) The bacterial inoculum corresponds to a 1/20th dilution of this bacterial suspension.
(§7) Plates equipped with cupules receive different dilutions of the product to be analyzed. These dilutions are placed in contact with the different bacterial suspensions by means of a multiple-center inoculator. After 20 minutes of contact, aliquot parts are transferred by means of said inoculator on the surface of an agar medium (TSA) in Petri dishes, containing an activity-neutralizing agent, namely 20 g of lubrol W, 25 g of Tween 80 and 2.5 g of sodium thiosulfate in 1000 ml of TSA (Difco). The efficiency of the neutralizing agent is controlled for each product to be analyzed by depositing on the surface of the culture medium an aliquot part of the dilution of the product to be analyzed. After drying, the corresponding inoculum is deposited in the same place. An inoculum control is performed on an agar medium with or without neutralizing agent. Readings are taken after 48 hours of incubation at 37° C.

[2] = Acute toxicity by oral route in mice; details: mouse, in vivo, per os, male CD1 mice, 14 days observation
Experimental: Acute toxicity was tested by oral route in mice. This test was carried out with male mice of CD1 strain, obtained from the Charles Reever breeding farm. Each batch was composed of 5 animals of body weight varying between 24 and 30 g kept in the same cage. The animals were kept fasting for 6 hours before the treatment. For every test, the product, placed in suspension in a 10% solution of gum arabic, was administered by forcible feeding with an oesophageal probe. Food was then served to the animals 4 hours after the forcible feeding and the animals were kept under observation for a period of 14 days after the administration. During that period, the death rate is recorded for each batch of animals used in the experiment and, wherever possible, the LD50 is determined by the method of J. T. Litchfield and F. Wilcoxon, J. Pharmacol. 1949, 95, 99-113.
The results are given in mg of substance tested per kg of body weight. They are compiled in Table III below.

[3] = test system: Encapsulated klebsiella pneumoniae R030; experiment: Bactericidal activity (MBC), strain 2; format: cell-based; details: 20 min, strain 2, 20 minutes of contact, read-out: Minimum bactericidal concentration (MBC)
Text: as §1, §2, §3
2--Encapsulated klebsiella pneumoniae R030;
as §4, §5, §6, §7

[4] = test system: Escherichia Coli CNCM 54125; experiment: Bactericidal activity (MBC), strain 1; format: cell-based; details: 20 min, strain 1, 20 minutes of contact, read-out: Minimum bactericidal concentration (MBC)
Text: as §1, §2, §3
1--Escherichia Coli CNCM 54125;
as §4, §5, §6, §7

[5] = test system: Staphylococcus aureus CNCM 53154; experiment: Bactericidal activity (MBC), strain 5; format: cell-based; details: CNCM53154, 20 min, strain 5, 20 minutes of contact, read-out: Minimum bactericidal concentration (MBC)
Text: as §1, §2, §3
5--Staphylococcus aureus CNCM 53154.
as §4, §5, §6, §7

[6] = test system: Pseudomonas aeruginosa CNCM A22; experiment: Bactericidal activity (MBC), strain 3; format: cell-based; details: CNCMA22, 20 min, strain 3, 20 minutes of contact, read-out: Minimum bactericidal concentration (MBC)
Text: as §1, §2, §3
3--Pseudomonas aeruginosa CNCM A22;
as §4, §5, §6, §7

[7] = test system: Candida albicans CNCM 1180; experiment: Antifungal activity (MFC), strain 1; format: cell-based; details: 20 min; yeast strain 1; read-out: Minimum fongicidal concentration (MFC)
Text: as §2, §7
(§8) The antifungal activity of the products according to the invention was also determined with the aforedescribed method.
(§9) The fungal strains selected for the analysis are:
1--Candida albicans CNCM 1180;
(§10) These strains are supported on a Sabouraud Dextrose agar medium commercialized by Difco; the technique used is the same as that used in the analysis of the antibacterial activity. After 48 hours of culture at 37° C., the microbial growth is collected with glass beads and 5 ml of diluent containing 1 g of tryptone and 8.5 g of sodium chloride in 1000 ml of distilled water; 5 ml of the diluent are then added. […] A 1/100th dilution of this suspension, observed between slides under a microscope 40-lens, should show 10 cells per frame, this corresponding to 1,000,000 yeasts per ml.

[8] = test system: Torulopsis glabrata 072023; experiment: Antifungal activity (MFC), strain 4; format: cell-based; details: 20 min; yeast strain 4; read-out: Minimum fongicidal concentration (MFC)
Text: as §2, §7, §8, §9, §10

Candida parakruzei 3918 = experiment: Antifungal activity (MFC), strain 3; format: cell-based; details: 20 min; yeast strain 3; read-out: Minimum fongicidal concentration (MFC)
Text: as §2, §7, §8, §9
3--Candida parakruzei 3918;
as §10

Candida tropicalis 3834 = experiment: Antifungal activity (MFC), strain 2; format: cell-based; details: 20 min; yeast strain 2; read-out: Minimum fongicidal concentration (MFC)
Text: as §2, §7, §8, §9
2--Candida tropicalis 3834;
as §10

## OCC(CCN1CCCC1)c1cccc2ccccc12 (stereo not shown) [SR 43 063 A]
[1]
  MBC: 2000 µg/mL (≈ 7420 µM)
[2]
  LD50 at 336 h: 300 to 400 mg/kg
[3]
  MBC: 1000 µg/mL (≈ 3710 µM)
[4]
  MBC: 2000 µg/mL (≈ 7420 µM)
[5]
  MBC: 1000 µg/mL (≈ 3710 µM)
[6]
  MBC: 1000 µg/mL (≈ 3710 µM)

## CC(C)N(CCC(CO)c1cccc2ccccc12)C(C)C (stereo not shown) [SR 43 121 A]
[1]
  MBC: 800 µg/mL (≈ 2670 µM)
[2]
  LD50 at 336 h: 300 to 400 mg/kg
[3]
  MBC: 1500 µg/mL (≈ 5010 µM)
[4]
  MBC: 1500 µg/mL (≈ 5010 µM)
[5]
  MBC: 800 µg/mL (≈ 2670 µM)
[6]
  MBC: 1500 µg/mL (≈ 5010 µM)

## Cc1cccc(C(CO)CCN2CCC(Cc3ccccc3)CC2)c1 (stereo not shown) [SR 44 226 A]
[1]
  MBC: 1000 µg/mL (≈ 2960 µM)
[3]
  MBC: 1000 µg/mL (≈ 2960 µM)
[4]
  MBC: 1000 µg/mL (≈ 2960 µM)
[5]
  MBC: 2000 µg/mL (≈ 5930 µM)
[6]
  MBC: 500 µg/mL (≈ 1480 µM)

## OCC(CCN1CCCCCC1)c1ccc(Cl)cc1Cl (stereo not shown) [SR 43 802 A]
[1]
  MBC: 2000 µg/mL (≈ 6320 µM)
[3]
  MBC: 1000 µg/mL (≈ 3160 µM)
[4]
  MBC: 1000 µg/mL (≈ 3160 µM)
[5]
  MBC: 5000 µg/mL (≈ 15800 µM)
[6]
  MBC: 1000 µg/mL (≈ 3160 µM)

## Cl.OCC(CCN1CCC(Cc2ccccc2)CC1)c1ccc(Cl)c(Cl)c1 (stereo not shown) [SR 43 969 A, 4-(4-benzylpiperidino)-2-(3,4-dichlorophenyl)butanol hydrochloride]
[1]
  MBC: 100 µg/mL
[7]
  MFC: 50 µg/mL
[8]
  MFC: 500 µg/mL
Candida parakruzei 3918
  MFC: 100 µg/mL
[3]
  MBC: 100 µg/mL
[4]
  MBC: 50 µg/mL
[5]
  MBC: 50 µg/mL
Candida tropicalis 3834
  MFC: 50 µg/mL
[6]
  MBC: 500 µg/mL

## CN1CCN(CCC(CO)c2cccc3ccccc23)CC1 (stereo not shown) [SR 43 291A, reference compound]
[1]
  MBC: > 10000 µg/mL
[3]
  MBC: 3000 µg/mL (≈ 10100 µM)
[4]
  MBC: 5000 µg/mL (≈ 16800 µM)
[5]
  MBC: 8000 µg/mL (≈ 26800 µM)
[6]
  MBC: 1000 µg/mL (≈ 3350 µM)

## OCC(CCN1CCCCCC1)c1cccc2ccccc12 (stereo not shown) [SR 43 155 A]
[1]
  MBC: 500 µg/mL (≈ 1680 µM)
[2]
  LD50 at 336 h: < 500 mg/kg
[7]
  MFC: 500 µg/mL (≈ 1680 µM)
[8]
  MFC: 2000 µg/mL (≈ 6720 µM)
Candida parakruzei 3918
  MFC: 500 µg/mL (≈ 1680 µM)
[3]
  MBC: 500 µg/mL (≈ 1680 µM)
[4]
  MBC: 500 µg/mL (≈ 1680 µM)
[5]
  MBC: 500 µg/mL (≈ 1680 µM)
Candida tropicalis 3834
  MFC: 500 µg/mL (≈ 1680 µM)
[6]
  MBC: 200 µg/mL (≈ 672 µM)

## OCC(CCCN1CCN(c2ccccc2)CC1)c1ccccc1 (stereo not shown) [SR 43 970 A, reference compound]
[1]
  MBC: 10000 µg/mL (≈ 30800 µM)
[3]
  MBC: 5000 µg/mL (≈ 15400 µM)
[4]
  MBC: 5000 µg/mL (≈ 15400 µM)
[5]
  MBC: 5000 µg/mL (≈ 15400 µM)
[6]
  MBC: 2000 µg/mL (≈ 6160 µM)

## OCC(CCN1CCC(Cc2ccccc2)CC1)c1ccc(Cl)cc1Cl (stereo not shown) [SR 44 027 A]
[1]
  MBC: 100 µg/mL (≈ 255 µM)
[2]
  LD50 at 336 h: 1000 to 1200 mg/kg
[7]
  MFC: 250 µg/mL (≈ 637 µM)
[8]
  MFC: 250 µg/mL (≈ 637 µM)
Candida parakruzei 3918
  MFC: 500 µg/mL (≈ 1270 µM)
[3]
  MBC: 50 µg/mL (≈ 127 µM)
[4]
  MBC: 50 µg/mL (≈ 127 µM)
[5]
  MBC: 200 µg/mL (≈ 510 µM)
Candida tropicalis 3834
  MFC: 250 µg/mL (≈ 637 µM)
[6]
  MBC: 100 µg/mL (≈ 255 µM)

## CCN(CC)CCC(CO)c1cccc2ccccc12.Cl (stereo not shown) [SR 42 989 A, 4-(N,N-diethylamino)-2-(1-naphthyl)-butanol hydrochloride]
[1]
  MBC: 2000 µg/mL
[2]
  LD50 at 336 h: 300 to 400 mg/kg
[3]
  MBC: 1500 µg/mL
[4]
  MBC: 1500 µg/mL
[5]
  MBC: 1500 µg/mL
[6]
  MBC: 1500 µg/mL

## OCC(CCN1CCc2ccccc2C1)c1cccc2ccccc12 (stereo not shown) [SR 43 247 A]
[1]
  MBC: 300 µg/mL (≈ 905 µM)
[7]
  MFC: 1000 µg/mL (≈ 3020 µM)
[8]
  MFC: 2000 µg/mL (≈ 6030 µM)
Candida parakruzei 3918
  MFC: 1000 µg/mL (≈ 3020 µM)
[3]
  MBC: 300 µg/mL (≈ 905 µM)
[4]
  MBC: 300 µg/mL (≈ 905 µM)
[5]
  MBC: 500 µg/mL (≈ 1510 µM)
Candida tropicalis 3834
  MFC: 500 µg/mL (≈ 1510 µM)
[6]
  MBC: 300 µg/mL (≈ 905 µM)

## OCC(CCN1CCCCCC1)c1ccc(Cl)c(Cl)c1 (stereo not shown) [SR 43 803 A]
[1]
  MBC: 400 µg/mL (≈ 1260 µM)
[7]
  MFC: 1000 µg/mL (≈ 3160 µM)
[8]
  MFC: 2000 µg/mL (≈ 6320 µM)
Candida parakruzei 3918
  MFC: 500 µg/mL (≈ 1580 µM)
[3]
  MBC: 400 µg/mL (≈ 1260 µM)
[4]
  MBC: 400 µg/mL (≈ 1260 µM)
[5]
  MBC: 400 µg/mL (≈ 1260 µM)
Candida tropicalis 3834
  MFC: 500 µg/mL (≈ 1580 µM)
[6]
  MBC: 500 µg/mL (≈ 1580 µM)
